In PubChem BioAssay (NCI):
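How tested: cells in 96-well plates exposed to compound for 48 hours at five concentrations. At the GI50, growth is halved. TGI: total growth inhibition.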

Key:
Experiment in all cases: NCI tumour cell line growth inhibition, 48 h
[1] = tested on: MCF7 breast
[2] = tested on: CCRF-CEM leukemia
[3] = tested on: NCI-H522 lung
[4] = tested on: SR leukemia
[5] = tested on: U251 CNS
[6] = tested on: OVCAR-4 ovarian
[7] = tested on: HOP-92 NSCLC
[8] = tested on: RXF 393 renal
[9] = tested on: OVCAR-8 ovarian
[10] = tested on: CAKI-1 renal
[11] = tested on: SW-620 colon
[12] = tested on: HCT-116 colon
[13] = tested on: OVCAR-5 ovarian
[14] = tested on: NCI/ADR-RES ovarian
[15] = tested on: SK-MEL-5 melanoma
[16] = tested on: SNB-19 CNS
[17] = tested on: TK-10 renal
[18] = tested on: A498 renal
[19] = tested on: HL-60(TB) leukemia
[20] = tested on: MALME-3M melanoma
[21] = tested on: MDA-MB-231 breast
[22] = tested on: DU-145 prostate
[23] = tested on: NCI-H460 lung
[24] = tested on: NCI-H226 lung
[25] = tested on: SN12C renal
[26] = tested on: RPMI-8226 leukemia
[27] = tested on: SF-539 CNS
[28] = tested on: MDA-MB-435
[29] = tested on: HCC-2998 colon
[30] = tested on: IGROV1 ovarian
[31] = tested on: UACC-257 melanoma
[32] = tested on: SF-268 CNS
[33] = tested on: COLO 205 colon
[34] = tested on: SK-MEL-2 melanoma
[35] = tested on: SF-295 CNS
[36] = tested on: KM12 colon
[37] = tested on: K-562 leukemia
[38] = tested on: NCI-H23 lung
[39] = tested on: MOLT-4 leukemia
[40] = tested on: BT-549 breast
[41] = tested on: HOP-62 NSCLC
[42] = tested on: A549 NSCLC
[43] = tested on: T-47D breast
[44] = tested on: UACC-62 melanoma
[45] = tested on: 786-0 renal
[46] = tested on: SK-MEL-28 melanoma
[47] = tested on: PC-3 prostate
[48] = tested on: SNB-75 CNS
[49] = tested on: EKVX NSCLC
[50] = tested on: UO-31 renal
[51] = tested on: HS 578T breast
[52] = tested on: OVCAR-3 ovarian
[53] = tested on: M14 melanoma
[54] = tested on: HCT-15 colon
[55] = tested on: LOX IMVI melanoma
[56] = tested on: ACHN renal
[57] = tested on: HT29 colon
[58] = tested on: SK-OV-3 ovarian

Structure (SMILES): O=CC1C(Cl)=Nc2nc3ccccc3n2C1c1ccc([N+](=O)[O-])cc1 (stereo not given)
- TGI [1]: 67900 nM
- TGI [2]: > 100000 nM
- TGI [3]: 12800 nM
- TGI [4]: 5970 nM
- TGI [5]: 44500 nM
- TGI [6]: 30900 nM
- TGI [7]: 20700 nM
- TGI [8]: 7150 nM
- TGI [9]: 27700 nM
- TGI [10]: 7650 nM
- TGI [11]: > 100000 nM
- TGI [12]: > 100000 nM
- TGI [13]: > 100000 nM
- TGI [14]: > 100000 nM
- TGI [15]: 37900 nM
- TGI [16]: 36300 nM
- TGI [17]: 16100 nM
- TGI [18]: 47400 nM
- TGI [19]: 20200 nM
- TGI [20]: 31600 nM
- TGI [21]: 45400 nM
- TGI [22]: 32400 nM
- TGI [23]: 94000 nM
- TGI [24]: 9270 nM
- TGI [25]: 51400 nM
- TGI [26]: > 100000 nM
- TGI [27]: > 100000 nM
- TGI [28]: 27800 nM
- TGI [29]: 49400 nM
- TGI [30]: 26000 nM
- TGI [31]: 31500 nM
- TGI [32]: 62200 nM
- TGI [33]: > 100000 nM
- TGI [34]: 21400 nM
- TGI [35]: 50700 nM
- TGI [36]: 82900 nM
- TGI [37]: 78500 nM
- TGI [38]: 57100 nM
- TGI [39]: 6290 nM
- TGI [40]: 2580 nM
- TGI [41]: > 100000 nM
- TGI [42]: > 100000 nM
- TGI [43]: 4190 nM
- TGI [44]: 35600 nM
- TGI [45]: > 100000 nM
- TGI [46]: 5090 nM
- TGI [47]: > 100000 nM
- TGI [48]: 5280 nM
- TGI [49]: 53500 nM
- TGI [50]: 14800 nM
- TGI [51]: > 100000 nM
- TGI [52]: > 100000 nM
- TGI [53]: > 100000 nM

Structure (SMILES): Brc1ccc2[nH]cc([C@H]3CN[C@@H](c4c[nH]c5ccc(Br)cc45)CN3)c2c1
- TGI [1]: 3300 nM
- TGI [2]: 6110 nM
- TGI [3]: 3270 nM
- TGI [4]: 5200 nM
- TGI [5]: 5020 nM
- TGI [6]: 4440 nM
- TGI [7]: 6050 nM
- TGI [8]: > 25400 nM
- TGI [9]: 3700 nM
- TGI [54]: 3810 nM
- TGI [10]: 4880 nM
- TGI [11]: > 22100 nM
- TGI [12]: 4680 nM
- GI50 [13]: 3250 nM
- TGI [13]: 12000 nM
- TGI [14]: 4520 nM
- TGI [15]: 6770 nM
- TGI [16]: > 23900 nM
- TGI [17]: 4780 nM
- TGI [18]: 4530 nM
- TGI [19]: 4080 nM
- GI50 [20]: 2790 nM
- TGI [20]: 15000 nM
- GI50 [21]: 1850 nM
- TGI [21]: 3810 nM
- TGI [22]: 5250 nM
- GI50 [23]: 3040 nM
- TGI [23]: 16300 nM
- TGI [24]: 7760 nM
- TGI [55]: 2820 nM
- TGI [25]: 9890 nM
- TGI [26]: 6040 nM
- TGI [27]: 4060 nM
- TGI [28]: 3180 nM
- TGI [29]: 3170 nM
- TGI [30]: 3780 nM
- GI50 [31]: 7390 nM
- TGI [31]: 21400 nM
- TGI [32]: 9050 nM
- TGI [33]: 3240 nM
- TGI [34]: 5540 nM
- GI50 [35]: 12200 nM
- TGI [35]: 27600 nM
- TGI [36]: 3250 nM
- TGI [37]: 4540 nM
- TGI [38]: 3620 nM
- TGI [39]: 4950 nM
- TGI [40]: > 62000 nM
- TGI [41]: > 41200 nM
- TGI [42]: 7170 nM
- GI50 [43]: 3620 nM
- TGI [43]: 18000 nM
- TGI [56]: 5010 nM
- TGI [44]: > 45900 nM
- TGI [45]: 5680 nM
- TGI [46]: > 52600 nM
- TGI [47]: 5270 nM
- GI50 [48]: 1500 nM
- TGI [48]: 8460 nM
- TGI [49]: 6460 nM
- TGI [50]: 5290 nM
- TGI [51]: 28200 nM
- TGI [52]: 3800 nM
- TGI [53]: 3380 nM
- TGI [57]: 4680 nM
- TGI [58]: > 23500 nM

Structure (SMILES): CC(C)CCC[C@@H](C)[C@H]1CCC2C3=CCn4c(=O)ccc(=O)n4C3CC[C@@]21C (stereo not given in full)
- GI50 [1]: 341 nM
- TGI [1]: 1400 nM
- GI50 [2]: 453 nM
- TGI [2]: > 100000 nM
- GI50 [3]: 451 nM
- TGI [3]: 1170 nM
- GI50 [4]: 137 nM
- TGI [4]: 758 nM
- GI50 [5]: 645 nM
- TGI [5]: 1840 nM
- GI50 [6]: 910 nM
- TGI [6]: 2300 nM
- GI50 [7]: 240 nM
- TGI [7]: 1390 nM
- GI50 [8]: 717 nM
- TGI [8]: 2310 nM
- GI50 [9]: 485 nM
- TGI [9]: 7550 nM
- GI50 [54]: 432 nM
- TGI [54]: 2050 nM
- GI50 [10]: 460 nM
- TGI [10]: 1210 nM
- GI50 [11]: 689 nM
- TGI [11]: 1940 nM
- GI50 [12]: 220 nM
- TGI [12]: 645 nM
- GI50 [13]: 1160 nM
- TGI [13]: 2710 nM
- GI50 [14]: 602 nM
- TGI [14]: 2350 nM
- GI50 [15]: 844 nM
- TGI [15]: 2150 nM
- GI50 [16]: 1590 nM
- TGI [16]: 3020 nM
- GI50 [17]: 421 nM
- TGI [17]: 1430 nM
- GI50 [18]: 1260 nM
- TGI [18]: 2540 nM
- GI50 [19]: 113 nM
- TGI [19]: 490 nM
- GI50 [20]: 1400 nM
- TGI [20]: 2920 nM
- GI50 [21]: 1180 nM
- TGI [21]: 2720 nM
- GI50 [22]: 1240 nM
- TGI [22]: 2520 nM
- GI50 [23]: 886 nM
- TGI [23]: 2350 nM
- GI50 [24]: 1430 nM
- TGI [24]: 3320 nM
- GI50 [55]: 482 nM
- TGI [55]: 1490 nM
- GI50 [25]: 624 nM
- TGI [25]: 2030 nM
- GI50 [26]: 243 nM
- TGI [26]: 1010 nM
- GI50 [27]: 1430 nM
- TGI [27]: 2790 nM
- GI50 [28]: 599 nM
- TGI [28]: 2030 nM
- GI50 [29]: 708 nM
- TGI [29]: 2030 nM
- GI50 [30]: 698 nM
- TGI [30]: 2500 nM
- GI50 [31]: 433 nM
- TGI [31]: 1550 nM
- GI50 [32]: 1460 nM
- TGI [32]: 2870 nM
- GI50 [33]: 449 nM
- TGI [33]: 1140 nM
- GI50 [34]: 557 nM
- TGI [34]: 1460 nM
- GI50 [35]: 352 nM
- TGI [35]: 1280 nM
- GI50 [36]: 639 nM
- TGI [36]: 1800 nM
- GI50 [37]: 309 nM
- TGI [37]: 2020 nM
- GI50 [38]: 1630 nM
- TGI [38]: 4180 nM
- GI50 [39]: 545 nM
- TGI [39]: 4130 nM
- GI50 [40]: 241 nM
- TGI [40]: 1140 nM
- GI50 [41]: 1340 nM
- TGI [41]: 2760 nM
- GI50 [42]: 325 nM
- TGI [42]: 1240 nM
- GI50 [43]: 266 nM
- TGI [43]: 1600 nM
- GI50 [56]: 1160 nM
- TGI [56]: 2450 nM
- GI50 [44]: 483 nM
- TGI [44]: 1930 nM
- GI50 [45]: 921 nM
- TGI [45]: 2180 nM
- GI50 [46]: 837 nM
- TGI [46]: 2100 nM
- GI50 [47]: 367 nM
- TGI [47]: 1590 nM
- GI50 [48]: 1010 nM
- TGI [48]: 2180 nM
- GI50 [49]: 1240 nM
- TGI [49]: 2940 nM
- GI50 [50]: 354 nM
- TGI [50]: 1480 nM
- GI50 [51]: 1840 nM
- TGI [51]: 5030 nM
- GI50 [52]: 740 nM
- TGI [52]: 2000 nM
- GI50 [53]: 436 nM
- TGI [53]: 1440 nM
- GI50 [57]: 575 nM
- TGI [57]: 2060 nM
- GI50 [58]: 1780 nM
- TGI [58]: 3170 nM
